Assay results: the NIST ThermoML archive (doi:10.1016/j.fluid.2018.09.026)
Values joined by “and” are separate entries in the source; they are usually repeats but may differ in a detail not shown here. Equal values may be shown once.

Settings: Liquid; for viscosity: Vibrating wire viscometry; for mass density: Vibrating tube method

OCCOCCOCCO [triethylene glycol]
Settings | mass density | viscosity
343.08 K, 67540 kPa | – | 10.64 mPa·s
343.08 K, 67870 kPa | – | 10.63 mPa·s
343.15 K, 100 kPa | 1083.9 kg/m3 | –
343.15 K, 640 kPa | 1084.2 kg/m3 | –
343.15 K, 1120 kPa | 1084.4 kg/m3 | –
343.15 K, 1600 kPa | 1084.7 kg/m3 | –
343.15 K, 2110 kPa | 1084.9 kg/m3 | –
343.15 K, 3040 kPa | 1085.5 kg/m3 | –
343.15 K, 5040 kPa | 1086.6 kg/m3 | –
343.15 K, 6960 kPa | 1087.5 kg/m3 | –
343.15 K, 9920 kPa | 1089 kg/m3 | –
343.15 K, 14810 kPa | 1091.6 kg/m3 | –
343.15 K, 19680 kPa | 1093.9 kg/m3 | –
343.15 K, 24620 kPa | 1096.4 kg/m3 | –
343.15 K, 29580 kPa | 1098.7 kg/m3 | –
343.15 K, 34460 kPa | 1101 kg/m3 | –
343.15 K, 39370 kPa | 1103.3 kg/m3 | –
343.15 K, 44240 kPa | 1105.4 kg/m3 | –
343.15 K, 49160 kPa | 1107.6 kg/m3 | –
343.15 K, 54020 kPa | 1109.7 kg/m3 | –
343.15 K, 58940 kPa | 1111.7 kg/m3 | –
343.15 K, 63890 kPa | 1113.8 kg/m3 | –
343.15 K, 68680 kPa | 1115.7 kg/m3 | –
353.15 K, 100 kPa | 1076 kg/m3 | –
353.15 K, 650 kPa | 1076.3 kg/m3 | –
353.15 K, 1100 kPa | 1076.5 kg/m3 | –
353.15 K, 1550 kPa | 1076.7 kg/m3 | –
353.15 K, 2100 kPa | 1077.1 kg/m3 | –
353.15 K, 3050 kPa | 1077.6 kg/m3 | –
353.15 K, 5040 kPa | 1078.6 kg/m3 | –
353.15 K, 7010 kPa | 1079.8 kg/m3 | –
353.15 K, 9960 kPa | 1081.3 kg/m3 | –
353.15 K, 14810 kPa | 1084 kg/m3 | –
353.15 K, 19780 kPa | 1086.5 kg/m3 | –
353.15 K, 24610 kPa | 1089 kg/m3 | –
353.15 K, 29560 kPa | 1091.9 kg/m3 | –
353.15 K, 34450 kPa | 1093.8 kg/m3 | –
353.15 K, 39370 kPa | 1096.1 kg/m3 | –
353.15 K, 44270 kPa | 1098.4 kg/m3 | –
353.15 K, 49200 kPa | 1100.6 kg/m3 | –
353.15 K, 54090 kPa | 1102.8 kg/m3 | –
353.15 K, 59010 kPa | 1104.9 kg/m3 | –
353.15 K, 63820 kPa | 1107 kg/m3 | –
353.15 K, 68800 kPa | 1109 kg/m3 | –
362.88 K, 190 kPa | – | 4.247 mPa·s [middle of 7 runs]
362.88 K, 1270 kPa | – | 4.27 mPa·s [middle of 8 runs]
362.88 K, 1990 kPa | – | 4.308 mPa·s and 4.283 mPa·s and 4.311 mPa·s
362.88 K, 2000 kPa | – | 4.292 mPa·s [middle of 5 runs]
362.88 K, 4990 kPa | – | 4.388 mPa·s [middle of 4 runs]
362.88 K, 5000 kPa | – | 4.396 mPa·s and 4.394 mPa·s and 4.386 mPa·s
362.88 K, 10010 kPa | – | 4.54 mPa·s and 4.522 mPa·s and 4.512 mPa·s
362.88 K, 10020 kPa | – | 4.524 mPa·s [middle of 4 runs]
362.88 K, 19820 kPa | – | 4.812 mPa·s
362.88 K, 19830 kPa | – | 4.792 mPa·s and 4.786 mPa·s and 4.794 mPa·s
362.88 K, 19840 kPa | – | 4.789 mPa·s
362.88 K, 29760 kPa | – | 5.092 mPa·s
362.88 K, 29770 kPa | – | 5.089 mPa·s
362.88 K, 29780 kPa | – | 5.088 mPa·s
362.88 K, 29790 kPa | – | 5.109 mPa·s
362.88 K, 39030 kPa | – | 5.381 mPa·s
362.88 K, 39050 kPa | – | 5.39 mPa·s
362.88 K, 39060 kPa | – | 5.382 mPa·s
362.88 K, 39070 kPa | – | 5.395 mPa·s
362.88 K, 39330 kPa | – | 5.395 mPa·s
362.88 K, 50130 kPa | – | 5.747 mPa·s
362.88 K, 50260 kPa | – | 5.754 mPa·s
362.88 K, 50300 kPa | – | 5.756 mPa·s
362.88 K, 50380 kPa | – | 5.739 mPa·s
362.88 K, 50430 kPa | – | 5.763 mPa·s
362.88 K, 67370 kPa | – | 6.356 mPa·s
362.88 K, 67660 kPa | – | 6.331 mPa·s
362.88 K, 67980 kPa | – | 6.382 mPa·s
363.15 K, 100 kPa | 1068.1 kg/m3 and 1068 kg/m3 | –
363.15 K, 660 kPa | 1068.4 kg/m3 | –
363.15 K, 1120 kPa | 1068.7 kg/m3 | –
363.15 K, 1560 kPa | 1068.9 kg/m3 | –
363.15 K, 2130 kPa | 1069.2 kg/m3 | –
363.15 K, 3050 kPa | 1069.8 kg/m3 | –
363.15 K, 5090 kPa | 1070.9 kg/m3 | –
363.15 K, 6990 kPa | 1072 kg/m3 | –
363.15 K, 9980 kPa | 1073.7 kg/m3 | –
363.15 K, 14880 kPa | 1076.4 kg/m3 | –
363.15 K, 19680 kPa | 1079 kg/m3 | –
363.15 K, 24720 kPa | 1081.7 kg/m3 | –
363.15 K, 29630 kPa | 1084.2 kg/m3 | –
363.15 K, 34490 kPa | 1086.6 kg/m3 | –
363.15 K, 39430 kPa | 1089 kg/m3 | –
363.15 K, 44200 kPa | 1091.4 kg/m3 | –
363.15 K, 49240 kPa | 1093.7 kg/m3 | –
363.15 K, 54100 kPa | 1095.9 kg/m3 | –
363.15 K, 59010 kPa | 1098.1 kg/m3 | –
363.15 K, 63880 kPa | 1100.2 kg/m3 | –
363.15 K, 68830 kPa | 1102.3 kg/m3 | –
